According to the supplement of paper PMC4862054:

system: BT-474; conditions: 72 h
In short: (§1)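 Breast cancer cell lines (20 µl suspension) were seeded into 384-well plates holding compound at 5 concentrations in 10-fold steps over a compound-specific 10,000-fold range, then incubated 72 h. Cell death was read first by CellTox Green fluorescence (485/520 nm), then viability by CellTiter-Glo luminescence after 10 min at room temperature. Each plate was normalised to 0.1 % DMSO and a positive kill control. EC50 was fitted from the dose-response curves and censored at the top concentration.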

EC50, CellTiter-Glo | SMILES
14.7 nM | CC(=O)Nc1cccc(-n2c(=O)n(C3CC3)c(=O)c3c(Nc4ccc(I)cc4F)n(C)c(=O)c(C)c32)c1 [Trametinib]
> 10000 nM | Nc1ncn([C@H]2C[C@H](O)[C@@H](CO)O2)c(=O)n1 [Decitabine]
2660 nM | COc1cc2c(NC3CCN(C(C)C)CC3)nc(C3CCCCC3)nc2cc1OCCCN1CCCC1 [UNC0638]
888 nM | COc1cc([C@@H]2c3cc4c(cc3[C@@H](O[C@@H]3O[C@@H]5CO[C@@H](c6cccs6)O[C@H]5[C@H](O)[C@H]3O)[C@H]3COC(=O)[C@H]23)OCO4)cc(OC)c1O [Teniposide]
70 nM | O=C(Cc1ccc(-c2ccc(OCCN3CCOCC3)cc2)cn1)NCc1ccccc1 [KX2-391]

system: BT-549; conditions: 72 h
In short: as §1

EC50, CellTiter-Glo | SMILES
604 nM | Nc1ncn([C@H]2C[C@H](O)[C@@H](CO)O2)c(=O)n1 [Decitabine]
2530 nM | COc1cc2c(NC3CCN(C(C)C)CC3)nc(C3CCCCC3)nc2cc1OCCCN1CCCC1 [UNC0638]
359 nM | COc1cc([C@@H]2c3cc4c(cc3[C@@H](O[C@@H]3O[C@@H]5CO[C@@H](c6cccs6)O[C@H]5[C@H](O)[C@H]3O)[C@H]3COC(=O)[C@H]23)OCO4)cc(OC)c1O [Teniposide]
44.7 nM | O=C(Cc1ccc(-c2ccc(OCCN3CCOCC3)cc2)cn1)NCc1ccccc1 [KX2-391]

system: CAL-120; conditions: 72 h
In short: as §1

SMILES | EC50, CellTiter-Glo
CC(=O)Nc1cccc(-n2c(=O)n(C3CC3)c(=O)c3c(Nc4ccc(I)cc4F)n(C)c(=O)c(C)c32)c1 [Trametinib] | 16.2 nM
COc1cc2c(NC3CCN(C(C)C)CC3)nc(C3CCCCC3)nc2cc1OCCCN1CCCC1 [UNC0638] | 2720 nM
COc1cc([C@@H]2c3cc4c(cc3[C@@H](O[C@@H]3O[C@@H]5CO[C@@H](c6cccs6)O[C@H]5[C@H](O)[C@H]3O)[C@H]3COC(=O)[C@H]23)OCO4)cc(OC)c1O [Teniposide] | 2690 nM
O=C(Cc1ccc(-c2ccc(OCCN3CCOCC3)cc2)cn1)NCc1ccccc1 [KX2-391] | 57.1 nM

system: CAL-148; conditions: 72 h
In short: as §1

SMILES | EC50, CellTiter-Glo
COc1cc2c(NC3CCN(C(C)C)CC3)nc(C3CCCCC3)nc2cc1OCCCN1CCCC1 [UNC0638] | 2510 nM
COc1cc([C@@H]2c3cc4c(cc3[C@@H](O[C@@H]3O[C@@H]5CO[C@@H](c6cccs6)O[C@H]5[C@H](O)[C@H]3O)[C@H]3COC(=O)[C@H]23)OCO4)cc(OC)c1O [Teniposide] | 393 nM
O=C(Cc1ccc(-c2ccc(OCCN3CCOCC3)cc2)cn1)NCc1ccccc1 [KX2-391] | 35.8 nM

system: CAL-51; conditions: 72 h
In short: as §1

SMILES | EC50, CellTiter-Glo
Nc1ncn([C@H]2C[C@H](O)[C@@H](CO)O2)c(=O)n1 [Decitabine] | 1160 nM
C=CC(=O)N1CCC[C@@H](n2nc(-c3ccc(Oc4ccccc4)cc3)c3c(N)ncnc32)C1 [Ibrutinib] | 415 nM
COc1cc2c(NC3CCN(C(C)C)CC3)nc(C3CCCCC3)nc2cc1OCCCN1CCCC1 [UNC0638] | 1660 nM
COc1cc([C@@H]2c3cc4c(cc3[C@@H](O[C@@H]3O[C@@H]5CO[C@@H](c6cccs6)O[C@H]5[C@H](O)[C@H]3O)[C@H]3COC(=O)[C@H]23)OCO4)cc(OC)c1O [Teniposide] | 666 nM
O=C(Cc1ccc(-c2ccc(OCCN3CCOCC3)cc2)cn1)NCc1ccccc1 [KX2-391] | 16.8 nM

system: CAL-85-1; conditions: 72 h
In short: as §1

SMILES | EC50, CellTiter-Glo
CC(=O)Nc1cccc(-n2c(=O)n(C3CC3)c(=O)c3c(Nc4ccc(I)cc4F)n(C)c(=O)c(C)c32)c1 [Trametinib] | 21.1 nM
C=CC(=O)N1CCC[C@@H](n2nc(-c3ccc(Oc4ccccc4)cc3)c3c(N)ncnc32)C1 [Ibrutinib] | 493 nM
COc1cc2c(NC3CCN(C(C)C)CC3)nc(C3CCCCC3)nc2cc1OCCCN1CCCC1 [UNC0638] | 3520 nM
COc1cc([C@@H]2c3cc4c(cc3[C@@H](O[C@@H]3O[C@@H]5CO[C@@H](c6cccs6)O[C@H]5[C@H](O)[C@H]3O)[C@H]3COC(=O)[C@H]23)OCO4)cc(OC)c1O [Teniposide] | 1180 nM
O=C(Cc1ccc(-c2ccc(OCCN3CCOCC3)cc2)cn1)NCc1ccccc1 [KX2-391] | 23 nM

system: DU-4475; conditions: 72 h
In short: as §1

SMILES | EC50, CellTiter-Glo
CC(=O)Nc1cccc(-n2c(=O)n(C3CC3)c(=O)c3c(Nc4ccc(I)cc4F)n(C)c(=O)c(C)c32)c1 [Trametinib] | 1.37 nM
COc1cc2c(NC3CCN(C(C)C)CC3)nc(C3CCCCC3)nc2cc1OCCCN1CCCC1 [UNC0638] | 1650 nM
COc1cc([C@@H]2c3cc4c(cc3[C@@H](O[C@@H]3O[C@@H]5CO[C@@H](c6cccs6)O[C@H]5[C@H](O)[C@H]3O)[C@H]3COC(=O)[C@H]23)OCO4)cc(OC)c1O [Teniposide] | 184 nM
O=C(Cc1ccc(-c2ccc(OCCN3CCOCC3)cc2)cn1)NCc1ccccc1 [KX2-391] | 34.7 nM

system: HCC1143; conditions: 72 h
In short: as §1

EC50, CellTiter-Glo | SMILES
2380 nM | COc1cc2c(NC3CCN(C(C)C)CC3)nc(C3CCCCC3)nc2cc1OCCCN1CCCC1 [UNC0638]
842 nM | COc1cc([C@@H]2c3cc4c(cc3[C@@H](O[C@@H]3O[C@@H]5CO[C@@H](c6cccs6)O[C@H]5[C@H](O)[C@H]3O)[C@H]3COC(=O)[C@H]23)OCO4)cc(OC)c1O [Teniposide]
28.2 nM | O=C(Cc1ccc(-c2ccc(OCCN3CCOCC3)cc2)cn1)NCc1ccccc1 [KX2-391]

system: HCC1599; conditions: 72 h
In short: as §1

EC50, CellTiter-Glo | SMILES
2790 nM | COc1cc2c(NC3CCN(C(C)C)CC3)nc(C3CCCCC3)nc2cc1OCCCN1CCCC1 [UNC0638]
176 nM | COc1cc([C@@H]2c3cc4c(cc3[C@@H](O[C@@H]3O[C@@H]5CO[C@@H](c6cccs6)O[C@H]5[C@H](O)[C@H]3O)[C@H]3COC(=O)[C@H]23)OCO4)cc(OC)c1O [Teniposide]
61.9 nM | O=C(Cc1ccc(-c2ccc(OCCN3CCOCC3)cc2)cn1)NCc1ccccc1 [KX2-391]

system: HCC1937; conditions: 72 h
In short: as §1

EC50, CellTiter-Glo | SMILES
0.172 µM | CC(=O)Nc1cccc(-n2c(=O)n(C3CC3)c(=O)c3c(Nc4ccc(I)cc4F)n(C)c(=O)c(C)c32)c1 [Trametinib]
3.5 µM | Nc1ncn([C@H]2C[C@H](O)[C@@H](CO)O2)c(=O)n1 [Decitabine]
3.46 µM | COc1cc2c(NC3CCN(C(C)C)CC3)nc(C3CCCCC3)nc2cc1OCCCN1CCCC1 [UNC0638]
2.71 µM | COc1cc([C@@H]2c3cc4c(cc3[C@@H](O[C@@H]3O[C@@H]5CO[C@@H](c6cccs6)O[C@H]5[C@H](O)[C@H]3O)[C@H]3COC(=O)[C@H]23)OCO4)cc(OC)c1O [Teniposide]
